Source: patent US20190184069A1, “ANTIMICROBIAL COMPOSITIONS COMPRISING MINOCYCLINE AND DEGRADATION PRODUCTS OF OXIDIZED CELLULOSE” (Omrix Biopharmaceuticals Ltd., priority 2017, published 2019)
Entries after “also recorded” stand apart in the source; their conditions may differ.

Columns and labels:
[1] = system: S. aureus; assay: Secondary stage: bacterial growth (ET50/MIC) of antibiotics with or without extract of degradation products of ORC; assay type: cell-based, Staphylococcus aureus
Excerpt: ORC pads which had not been impregnated with antibiotic (referred to herein as “blank ORC pads”), were subjected to extraction and degradation in PBS for three hours at ambient temperature. Extract obtained from these blank ORC pads is referred to herein as “blank extract of degradation products of ORC”.
Blank ORC pads were subjected to extraction and degradation in a solution of antibiotic in PBS. Extracts of degradation products obtained from blank ORC pads in a solution of antibiotic in PBS is referred to herein as “extracts of degradation products of blank ORC in antibiotic”.
Due to the acidity of ORC, which provides some antibiotic effect, the size of the pad used was small i.e. approximately 1×1.5 inch, weighing between 65-75 mg (70 mg on average) in order to prevent the ORC from affecting the final pH of the assay and therefore the growth of the bacteria.
15 ml tubes, each containing 3 ml of an antibiotic solution at a known concentration in sterile PBS, were prepared in duplicate.
Blank ORC pads were subjected to extraction and degradation in the antibiotic solution by immersing the ORC pads in the antibiotic solution for 3-5 hours at ambient temperature on a roller mixer (Stuart, Cat#SRT9D).
Blank extract of degradation products of ORC and extract in antibiotic of degradation products of ORC, prepared as described above, were diluted 10 folds in MHBII in sterile 15 ml capped tubes.
The 5×10^6 CFU/ml stock suspension which had been prepared in advance was transferred into a reservoir and 10 μl of the stock suspension were added into each well of columns 2-11 using a multichannel pipette to obtain a final 5×10^5 CFU/ml suspension.
Columns 3 to 6, rows B to F, were filled with the Blank ORC extracted in antibiotic at decreasing concentrations 1 to 5, diluted 10 folds in MHBII. Each sample tested was placed in 4 well repeats for statistical results.
Columns 7 to 10, rows B to F, were filled with the antibiotic solution (AB) at decreasing concentrations 1 to 5, diluted 10 folds in MHBII. Each sample tested was placed in 4 well repeats for statistical results.
Columns 3 to 6, row G, were filled with the blank extract of degradation products of ORC (PBS-ORC) diluted 10 folds in MHBII.
The plate was incubated at 37° C. with shaking in the ELISA reader and the optical density at 600 nm was read every 20 minutes for a total of 18 hours.
The average and standard deviation for OD readings was calculated for each time point of the wells using Excel. The average values were plotted against time to obtain a graph of the bacterial growth curves in the presence of each of the antibiotics tested.
In some cases, the average OD was plotted for a single endpoint of 800 minutes for the various antibiotic treatments and controls.
The average values were also entered into the GraphPad Prism program (GraphPad Software Inc., CA, USA) in order to calculate the Effective Time 50 (ET50) i.e. the time, in minutes, required for the antibiotic to induce a response halfway between the baseline and maximum, where the maximum is the bacterial growth in MHBII with PBS. This provides a quantifiable measure of the efficacy of the antibiotics tested and enables comparison of the various samples tested.

[2] = system: S. aureus; conditions: cited from earlier work

CO[C@H]1/C=C/O[C@@]2(C)Oc3c(C)c(O)c4c(O)c(c(/C=N/N5CCN(C)CC5)c(O)c4c3C2=O)NC(=O)/C(C)=C\C=C\[C@H](C)[C@H](O)[C@@H](C)[C@@H](O)[C@@H](C)[C@H](OC(C)=O)[C@@H]1C [Rifampin, rifampin]
Effect of addition of degradation products of ORC on the antibiotic activity ([1]; antibiotic with versus without ORC degradation products): reduction in the antibiotic activity; also recorded: interfere with the antibiotic activity; also recorded: lowering of the antibiotic activity; also recorded: impaired
ET50 ([1]; rifampin 0.015 μg/ml, +ORC degradation products): 440.5 min
ET50 ([1]; rifampin 0.015 μg/ml, −ORC): 470.7 min
ET50 ([1]; rifampin 0.031 μg/ml, +ORC degradation products): 436.3 min
ET50 ([1]; rifampin 0.031 μg/ml, −ORC): 448.4 min
ET50 ([1]; rifampin 0.062 μg/ml, +ORC degradation products): 432.8 min
ET50 ([1]; rifampin 0.062 μg/ml, +ORC degradation products, listed as rifampin): 430 min
ET50 ([1]; rifampin 0.062 μg/ml, −ORC): 669.1 min
ET50 ([1]; rifampin 0.125 μg/ml, +ORC degradation products): 432.3 min
ET50 ([1]; rifampin 0.125 μg/ml, +ORC degradation products, listed as rifampin): around 430 minutes
ET50 ([1]; rifampin 0.125 μg/ml, −ORC): no growth at all
ET50 ([1]; rifampin 0.25 μg/ml, +ORC degradation products): 430.8 min
ET50 ([1]; rifampin 0.25 μg/ml, +ORC degradation products, listed as rifampin): around 430 minutes
ET50 ([1]; rifampin 0.25 μg/ml, −ORC): no growth at all
MIC values for S. aureus according to the literature [2]: 4 to 15 ng/mL

CN(C)c1ccc(O)c2c1C[C@H]1C[C@H]3[C@H](N(C)C)C(O)=C(C(N)=O)C(=O)[C@@]3(O)C(O)=C1C2=O [Minocycline, minocycline]
ET50 ([1]; minocycline 0.05 μg/ml, +ORC degradation products): 901.1 min
ET50 ([1]; minocycline 0.05 μg/ml, +ORC degradation products, listed as minocycline): 901 min
ET50 ([1]; minocycline 0.05 μg/ml, −ORC): 428.1 min
ET50 ([1]; minocycline 0.1 μg/ml, +ORC degradation products): >2000 min
ET50 ([1]; minocycline 0.1 μg/ml, +ORC degradation products, listed as minocycline): over 2000 minutes
ET50 ([1]; minocycline 0.1 μg/ml, −ORC): 555.1 min
ET50 ([1]; minocycline 0.1 μg/ml, −ORC, listed as minocycline): 555 min
ET50 ([1]; minocycline 0.2 μg/ml, +ORC degradation products): >2000 min
ET50 ([1]; minocycline 0.2 μg/ml, +ORC degradation products, listed as minocycline): over 2000 minutes
ET50 ([1]; minocycline 0.2 μg/ml, −ORC): 1771 min
ET50 ([1]; minocycline 0.4 μg/ml, +ORC degradation products): >2000 min
ET50 ([1]; minocycline 0.4 μg/ml, −ORC): >2000 min
ET50 ([1]; minocycline 0.4 μg/ml, −ORC, listed as minocycline): above 2000 minutes
ET50 ([1]; minocycline 0.5 μg/ml, +ORC degradation products): >2000 min
ET50 ([1]; minocycline 0.5 μg/ml, −ORC): >2000 min
